Source: patent publication US20250179059A1 (The Regents of the University of California, priority 2021, published 2025)

Key:
[1] = target: T1, human BRD4 bromodomain II (Homo sapiens, UniProt O60885); experiment: Bromodomain binding assay (AlphaScreen), BRD4 BDII; conditions: BRD4 BDII AlphaScreen assay; read-out: BRD4 BD2 IC50
T1 construct: human BRD4 bromodomain II [based on Genbank NM_058243, residues 349-460]; host or cells: E. coli
Outline: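 E. coli-expressed N-terminal His6-tagged human BRD4 BDII (residues 349-460) or BDI (residues 44-170) was preincubated 30 min at room temperature with compound (10-point, 3-fold) in pH 7.5 HEPES buffer, 1% DMSO. Displacement of biotinylated tetra-acetylated H4 1-21 peptide was read by AlphaScreen, and IC50 came from curve fitting.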

[2] = tested on: human SKM-1 acute myeloid leukemia cells; experiment: SKM-1 antiproliferation cell-based assay (ATPlite)
Outline: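 Log-phase cells in RPMI 1640/15% FBS were seeded at 34722 cells/mL and exposed for 4 days to nine-concentration DMSO serial dilutions in triplicate. Viability was read as ATP luminescence (ATPlite 1step), and IC50 values came from variable-slope non-linear regression.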

[3] = Homo sapiens, SKM-1, SKM-1 antiproliferation assay

Row | Structure (SMILES) | IC50 [1] [nM] | GI50 [2, 3] [nM] | GI50 ([2]; SKM-1 antiproliferation assay) [nM]
1 | Cc1cc(-c2ccc(-n3ccn(C)c3=O)c(Cl)c2)c(O)c(-c2cnc(C)c(N3CCC4(CCCN4C(C)C)C3)c2)n1 (stereo not drawn) [Example 973, 1-(2-chloro-4-(3-hydroxy-5′-(1-isopropyl-1,7-diazaspiro[4.4]nonan-7-yl)-6,6′-dimethyl-[2,3′-bipyridin]-4-yl)phenyl)-3-methyl-1H-imidazol-2(3H)-one] | 0.01 to 1 | 0.3 to 30 | –
2 | Cc1cc(-c2ccc(-n3ccn(C)c3=O)c(Cl)c2)c(O)c(-c2cnc(C)c(N3CCC4(CCN4C(C)C)C3)c2)n1 (stereo not drawn) [Example 974, 1-(2-chloro-4-(3-hydroxy-5′-(1-isopropyl-1,6-diazaspiro[3.4]octan-6-yl)-6,6′-dimethyl-[2,3′-bipyridin]-4-yl)phenyl)-3-methyl-1H-imidazol-2(3H)-one] | 0.01 to 1 | 0.3 to 30 | –
3 | Cc1cc(-c2ccc(-n3ccn(C)c3=O)c(Cl)c2)c(O)c(-c2cnc(N)c(N3CCC4(CCN4C(C)C)C3)c2)n1 (stereo not drawn) [Example 975, 1-(4-(6′-amino-3-hydroxy-5′-(1-isopropyl-1,6-diazaspiro[3.4]octan-6-yl)-6-methyl-[2,3′-bipyridin]-4-yl)-2-chlorophenyl)-3-methyl-1H-imidazol-2(3H)-one] | 1 to 10 | 0.3 to 30 | –
4 | Cn1ccn(-c2ccc(-c3ccnc(-c4cccc(N5CCN(C(C)(C)C)CC5)c4)c3N)cc2Cl)c1=O [Example 976, 1-(4-(3-Amino-2-(3-(4-(tert-butyl)piperazin-1-yl)phenyl)pyridin-4-yl)-2-chlorophenyl)-3-methyl-1H-imidazol-2(3H)-one] | 1 to 10 | 0.3 to 30 | –
5 | COc1ncc(-c2nc(C)cc(-c3ccc(-n4ccn(C)c4=O)c(Cl)c3)c2O)cc1N1CCC2(CCN2C(C)C)C1 (stereo not drawn) [Example 977, 1-(2-chloro-4-(3-hydroxy-5′-(1-isopropyl-1,6-diazaspiro[3.4]octan-6-yl)-6′-methoxy-6-methyl-[2,3′-bipyridin]-4-yl)phenyl)-3-methyl-1H-imidazol-2(3H)-one] | 0.01 to 1 | 0.3 to 30 | –
6 | Cc1cc(-c2ccc(-n3ccn(C)c3=O)c(Cl)c2)c(O)c(-c2cnc(N)c(N3CCC4(CCCN4C(C)C)C3)c2)n1 (stereo not drawn) [Example 978, 1-(4-(6′-amino-3-hydroxy-5′-(1-isopropyl-1,7-diazaspiro[4.4]nonan-7-yl)-6-methyl-[2,3′-bipyridin]-4-yl)-2-chlorophenyl)-3-methyl-1H-imidazol-2(3H)-one] | 0.01 to 1 | 0.3 to 30 | –
7 | Cn1ccn(-c2ccc(-c3ccnc(-c4cccc(N5CCN(C(C)(C)C)CC5)c4)c3O)cc2Cl)c1=O [Example 979, 1-(4-(2-(3-(4-(tert-butyl)piperazin-1-yl)phenyl)-3-hydroxypyridin-4-yl)-2-chlorophenyl)-3-methyl-1H-imidazol-2(3H)-one] | 1 to 10 | 0.3 to 30 | –
8 | CNc1ncc(-c2nc(C)cc(-c3ccc(-n4ccn(C)c4=O)c(Cl)c3)c2O)cc1N1CCC2(CCN2C(C)C)C1 (stereo not drawn) [Example 980, 1-(2-chloro-4-(3-hydroxy-5′-(1-isopropyl-1,6-diazaspiro[3.4]octan-6-yl)-6-methyl-6′-(methylamino)-[2,3′-bipyridin]-4-yl)phenyl)-3-methyl-1H-imidazol-2(3H)-one] | 1 to 10 | 0.3 to 30 | –
9 | Cc1cc(-c2ccc(-n3ccn(C)c3=O)c(Cl)c2)c(O)c(-c2cccc(N3CCC4(CCCN4C(C)C)C3)c2)n1 (stereo not drawn) [Example 981, 1-(2-chloro-4-(3-hydroxy-2-(3-(1-isopropyl-1,7-diazaspiro[4.4]nonan-7-yl)phenyl)-6-methylpyridin-4-yl)phenyl)-3-methyl-1H-imidazol-2(3H)-one] | 1 to 10 | 0.3 to 30 | –
10 | COc1ncc(-c2cc(F)cc(-c3ccc(-n4cc(C)n(C)c4=O)c(Cl)c3)c2O)cc1N1CCN(C(C)(C)C)CC1 [Example 982, 1-(3′-(5-(4-(tert-butyl)piperazin-1-yl)-6-methoxypyridin-3-yl)-3-chloro-5′-fluoro-2′-hydroxy-[1,1′-biphenyl]-4-yl)-3,4-dimethyl-1H-imidazol-2(3H)-one] | 1 to 10 | 30 to 300 | –
11 | Cc1cc(-c2ccc(-n3ccn(C)c3=O)c(Cl)c2)c(O)c(-c2cccc(N3CCC4(CCN4C(C)C)C3)c2)n1 (stereo not drawn) [Example 983, 1-(2-chloro-4-(3-hydroxy-2-(3-(1-isopropyl-1,6-diazaspiro[3.4]octan-6-yl)phenyl)-6-methylpyridin-4-yl)phenyl)-3-methyl-1H-imidazol-2(3H)-one] | 0.01 to 1 | 0.3 to 30 | –
12 | Cn1ccn(-c2ccc(-c3ccnc(-c4cnc(N)c(N5CCN(C(C)(C)C)CC5)c4)c3O)cc2Cl)c1=O [Example 984, 1-(4-(6′-amino-5′-(4-(tert-butyl)piperazin-1-yl)-3-hydroxy-[2,3′-bipyridin]-4-yl)-2-chlorophenyl)-3-methyl-1H-imidazol-2(3H)-one] | 10 to 100 | 0.3 to 30 | –
13 | CNc1ncc(-c2nc(C)cc(-c3ccc(-n4ccn(C)c4=O)c(Cl)c3)c2O)cc1N1CCC2(CCCN2C(C)C)C1 (stereo not drawn) [Example 985, 1-(2-chloro-4-(3-hydroxy-5′-(1-isopropyl-1,7-diazaspiro[4.4]nonan-7-yl)-6-methyl-6′-(methylamino)-[2,3′-bipyridin]-4-yl)phenyl)-3-methyl-1H-imidazol-2(3H)-one] | 1 to 10 | 0.3 to 30 | –
14 | CNc1ncc(-c2nccc(-c3ccc(-n4ccn(C)c4=O)c(Cl)c3)c2O)cc1N1CCN(C(C)(C)C)CC1 [Example 986, 1-(4-(5′-(4-(tert-butyl)piperazin-1-yl)-3-hydroxy-6′-(methylamino)-[2,3′-bipyridin]-4-yl)-2-chlorophenyl)-3-methyl-1H-imidazol-2(3H)-one] | 1 to 10 | 0.3 to 30 | –
15 | CC(C)N1CCC12CCN(c1cc(-c3cc(F)cc(-c4ccc(-n5ccn(C)c5=O)c(Cl)c4)c3O)cnc1N(C)C)C2 (stereo not drawn) [Example 987, 1-(3-chloro-3′-(6-(dimethylamino)-5-(1-isopropyl-1,6-diazaspiro[3.4]octan-6-yl)pyridin-3-yl)-5′-fluoro-2′-hydroxy-[1,1′-biphenyl]-4-yl)-3-methyl-1H-imidazol-2(3H)-one] | 1 to 10 | 0.3 to 30 | –
16 | CN(C)c1ncc(-c2nccc(-c3ccc(-n4ccn(C)c4=O)c(Cl)c3)c2O)cc1N1CCN(C(C)(C)C)CC1 [Example 988, 1-(4-(5′-(4-(tert-butyl)piperazin-1-yl)-6′-(dimethylamino)-3-hydroxy-[2,3′-bipyridin]-4-yl)-2-chlorophenyl)-3-methyl-1H-imidazol-2(3H)-one] | 1 to 10 | 0.3 to 30 | –
17 | Cc1cc(-c2ccc(-n3ccn(C)c3=O)c(Cl)c2)c(O)c(-c2cc(N3CCN(C(C)(C)C)CC3)c3nccn3c2)n1 [Example 989, 1-(4-(2-(8-(4-(tert-butyl)piperazin-1-yl)imidazo[1,2-a]pyridin-6-yl)-3-hydroxy-6-methylpyridin-4-yl)-2-chlorophenyl)-3-methyl-1H-imidazol-2(3H)-one] | 1 to 10 | – | 0.3 to 30
18 | Cc1cc(-c2ccc(-n3ccn(C)c3=O)c(Cl)c2)c(O)c(-c2cnc(N(C)C)c(N3CCC4(CCN4C(C)C)C3)c2)n1 (stereo not drawn) [Example 990, 1-(2-chloro-4-(6′-(dimethylamino)-3-hydroxy-5′-(1-isopropyl-1,6-diazaspiro[3.4]octan-6-yl)-6-methyl-[2,3′-bipyridin]-4-yl)phenyl)-3-methyl-1H-imidazol-2(3H)-one] | 1 to 10 | 0.3 to 30 | –
19 | [2H]C([2H])([2H])n1ccn(-c2ccc(-c3cc(C)nc(-c4cccc(N5CCN(C(C)(C)C)CC5)c4)c3O)cc2Cl)c1=O [Example 991, 1-(4-(2-(3-(4-(tert-Butyl)piperazin-1-yl)phenyl)-3-hydroxy-6-methylpyridin-4-yl)-2-chlorophenyl)-3-(methyl-d3)-1,3-dihydro-2H-imidazol-2-one] | 1 to 10 | 0.3 to 30 | –
20 | Cc1cc(-c2ccc(-n3ccn(C)c3=O)c(Cl)c2)c(N)c(-c2cccc(N3CCN(C(C)(C)C)CC3)c2)n1 [Example 992, 1-(4-(3-Amino-2-(3-(4-(tert-butyl)piperazin-1-yl)phenyl)-6-methylpyridin-4-yl)-2-chlorophenyl)-3-methyl-1H-imidazol-2(3H)-one] | 1 to 10 | 0.3 to 30 | –
21 | Cc1ncc(-c2nccc(-c3ccc(-n4ccn(C)c4=O)c(Cl)c3)c2O)cc1N1CCN(C(C)(C)C)CC1 [Example 993, 1-(4-(5′-(4-(tert-Butyl)piperazin-1-yl)-3-hydroxy-6′-methyl-[2,3′-bipyridin]-4-yl)-2-chlorophenyl)-3-methyl-1H-imidazol-2(3H)-one] | 10 to 100 | 0.3 to 30 | –
22 | Cc1cc(-c2ccc(-n3ccn(C)c3=O)c(Cl)c2)c(O)c(-c2cnc(N(C)C)c(N3CCC4(CCCN4C(C)C)C3)c2)n1 (stereo not drawn) [Example 994, 1-(2-Chloro-4-(6′-(dimethylamino)-3-hydroxy-5′-(1-isopropyl-1,7-diazaspiro[4.4]nonan-7-yl)-6-methyl-[2,3′-bipyridin]-4-yl)phenyl)-3-methyl-1H-imidazol-2(3H)-one] | 1 to 10 | 0.3 to 30 | –
23 | Cc1cc(-c2ccc(-n3ccn(C)c3=O)c(Cl)c2)c(O)c(-c2ccnc(N3CC[C@](C)(O)C3)c2)n1 [Example 995, (S)-1-(2-chloro-4-(3-hydroxy-2′-(3-hydroxy-3-methylpyrrolidin-1-yl)-6-methyl-[2,4′-bipyridin]-4-yl)phenyl)-3-methyl-1H-imidazol-2(3H)-one] | 1 to 10 | 0.3 to 30 | –
24 | Cc1cc(-c2ccc(-n3ccn(C)c3=O)c(Cl)c2)c(O)c(-c2ccnc(N3CC[C@@](C)(O)C3)c2)n1 [Example 996, (R)-1-(2-chloro-4-(3-hydroxy-2′-(3-hydroxy-3-methylpyrrolidin-1-yl)-6-methyl-[2,4′-bipyridin]-4-yl)phenyl)-3-methyl-1H-imidazol-2(3H)-one] | 1 to 10 | 0.3 to 30 | –
